Results as given in US12501895B2, “Composition for cryopreservation of myocardial cells” (BEIJING BAHEAL WISART MEDICAL RESEARCH CO., LTD, priority 2020, dated 2025).

System: human cardiomyocytes
Test: ex vivo culture of human cardiomyocytes for 7 days, rod-shaped rate (Example 4)
Assay type: cell-based
Conditions: 5-50 μM PAB versus 10 μM BLEB in M199 basal medium, cultured 7 days at 37° C., FIG. 4
Protocol: The purpose of this experiment was to investigate the effects of BLEB and PAB on cell survival rate and morphology during the ex vivo survival of cardiomyocytes, so as to predict the similarity of their roles during cryopreservation and resuscitation of cardiomyocytes.
10% fetal bovine serum, 100 U/ml penicillin and 100 μg/ml streptomycin were added to the M199 medium (purchased from Sigma Inc.), and the resulting medium was used as a basal medium. The experiments were divided into 6 groups, in which DMSO (as a control group), as well as 10 μM BLEB and 5 μM, 10 μM, 20 μM, and 50 μM PAB were added to the basal medium, respectively. The isolated human cardiomyocytes were divided into 6 groups, and the cells were plated on a 48-well cell culture plate coated with 200 μg/ml laminin in advance using 6 media, and the plate was placed and cultured in a cell incubator (with 5% CO2, and a relative saturated humidity of 95%) at 37° C. for 7 days.

## Cc1ccc2c(c1)C(=O)[C@]1(O)CCN(c3ccc(N)cc3)C1=N2 [PAB, para-aminoblebbistatin]
  rod-shaped rate of cardiomyocytes: close to or even better than the 10 μM BLEB group
